“Also recorded” adds a separate entry of the source.
Assays:
Format in all cases: in vivo
[1] = test system: rat carotid artery model of balloon angioplasty; experiment: Enalaprilat, Compound II, Compound I in rat carotid artery model of balloon angioplasty; details: 1 mg/kg/day continuous i.v.; for Intimal Area + sem / % Inhibition (intimal area): pretreatment (pt), 14 days; for % Inhibition (intimal area): vs. control; for inhibition of restenosis / neointima (in words): pretreatment
Description: AII Receptor Antagonist: The effect of enalaprilat, the AII (site 2) receptor antagonist, Compound II, and Compound II in combination with the AII (site 1) receptor antagonist, Compound I, were evaluated in the rat carotid artery model of balloon angioplasty. Rats were pretreated surgery and drag treatment was continued (1 mg/kg/day, continuous i.v.) by ALZET minipump for the duration of the experiments. Fourteen days after balloon angioplasty, the rats were sacrificed and the extent of restenosis was determined by morphometric measurements of the newly-formed intima.

restenosis in the rat [2] = experiment: Effect of AII + Compound I on restenosis in the rat; details: for effect on formation of the neointima (in words): exogenous AII 14 ug/kg/hr i.v., with or without Compound I
Description: The effect of AII+Compound I on restenosis in the rat
AII was delivered by continuous i.v. infusion (14 ug/kg/hr) beginning at the time of angioplasty. Compound I was delivered as an i.v. bolus at the time of angioplasty (1.0 mg/kg) followed by continuous i.v. infusion (1.0 mg/kg/day). Rats were sacrificed on day 14.

restenosis in the rat [3] = experiment: Effect of Compound I pretreatment and Compound I-Heparin combination therapy on restenosis in the rat; details: for Intima Area: average ± sem
Description: The effect of Compound I pretreatment and Compound I--Heparin Combination therapy on restenosis in the rat
Compound I was delivered as an i.v. bolus at the time of angioplasty (1.0 mg/kg) followed by continuous i.v. infusion (1.0 mg/kg/day). Some groups were pretreated with Compound I. Pretreatment (PreRx) was begun 48 hr (1 mg/kg/day, i.v. bolus) prior to angioplasty. In all cases, Compound I treatment was continued for 14 days post-angioplasty. Other groups received Compound I in conjunction with heparin (0.3 mg/kg i.v. bolus+0.3 mg/kg/hr continuous i.v.) begun at the time of angioplasty and discontinued either 2 or 4 days later. The Hep 4d and Hep 2d data from above is included.

restenosis in the rat [4] = experiment: Effect of Compound II or Compound I pretreatment on restenosis in the rat; details: 1 mg/kg/day i.v.; for Intimal Area / % Inhibition (intimal area): 48 h pretreatment, 14 days; for % Inhibition (intimal area): vs. control
Description: The Effect of Compound II on restenosis in the rat
Rats were pretreated with Compound II or Compound I for the 48 hour period prior to surgery as well as on the day of surgery (1 mg/kg/day, bolus i.v.). Drug treatment was continued at the time of angioplasty (1 mg/kg/day, continuous i.v.) for the duration of the experiments (14 days).

restenosis in the rat [5] = experiment: Effect of Compound I on restenosis in the rat: dose-response study; details: for I/M / Intima Area / Media Area: day 14
Description: The effect of Compound I on restenosis in the Rat: Dose-response study
Compound I was delivered as an i.v. bolus at the time of angioplasty (0.1-1.0 mg/kg) followed by continuous i.v. infusion (0.1-1.0 mg/kg/day) until sacrifice on day 14.

[6] = test system: restenosis in the rat model; experiment: Effects of Compound II (alone, + Compound I, + heparin) and heparin on restenosis in the rat model (balloon angioplasty); details: for Intimal Area / % Inhibition of restenosis (intimal area): 14 days after balloon angioplasty, Compounds 1 mg/kg/day i.v. with 48 h pretreatment; for Intimal Area: heparin 0.3 mg/kg bolus + 0.3 mg/kg/hr i.v. for 4 days; for % Inhibition of restenosis (intimal area): heparin 0.3 mg/kg/hr i.v. for 4 days, vs. control
Description: The effects of the angiotensin II (Site II) receptor antagonist Compound II on restenosis in the rat model
A vehicle treatment group was compared to rats treated with: i) the AII (AT2) receptor antagonist, Compound II; ii) Compound II plus the AII (AT1) receptor antagonist, Compound I; (iii) Compound II+heparin; and iv) heparin only. Combination treatment with Compound II and Compound I were administered for the 48 hour period prior to surgery as well as on the day of surgery at 1 mg/kg/day by bolus i.v. Compound II and Compound I treatment was continued at the time of angioplasty at 1 mg/kg/day by continuous i.v. delivery via Alzet minipumps for the duration of the experiments (14 days). Heparin was delivered as a 0.3 mg/kg i.v. bolus at the time of angioplasty followed by continous i.v. delivery at 0.3 mg/kg/hr by Alzet minipump. Heparin treatment was discontinued 4 days later. Fourteen days after balloon angioplasty, the rats were sacrificed and the extent of restenosis was determined by morphometric measurements of the newly-formed intima.

restenosis in the rat [7] = experiment: Effect of Heparin on restenosis in the rat: time course; details: for I/M / Intima Area / Media Area: heparin 0.3 mg/kg/hr i.v.
Description: The effect of Heparin on restenosis in the rat: time course
Heparin (0.3 mg/kg/hr) was delivered by i.v. bolus (0.3 mg/kg) at the time of angioplasty followed by continuous i.v. delivery for 2, 4 or 14 days (0.3 mg/kg,hr). The animals were sacrificed on day 14.

[8] = AII 14 ug/kg/hr i.v., Compound I 1.0 mg/kg bolus + 1.0 mg/kg/day i.v., day 14
[9] = PreRx (48 hr, 1 mg/kg/day), no heparin
[10] = no pretreatment, no heparin, Compound I 1.0 mg/kg/day i.v., 14 days
[11] = no pretreatment, Hep 4d (0.3 mg/kg/hr i.v.)

C[C@H](N[C@@H](CCc1ccccc1)C(=O)O)C(=O)N1CCC[C@H]1C(=O)O [enalaprilat]
Intimal Area + sem [1]: 0.133 ± 0.016 mm^2
% Inhibition (intimal area) [1]: 35%
inhibition of restenosis / neointima (in words) [1]: inhibit restenosis in this model; also recorded: independently inhibit neointima in this model

Angiotensin II (DRVYIHPF; Angiotensin-2; UniProt P01019 25-32, looked up) [AII, powerful arterial vasoconstrictor]
I/M (restenosis in the rat [2]; [8]): 1.92 ± 0.19
Intima Area (restenosis in the rat [2]; [8]): 0.348 ± 0.047 mm^2
Media Area (restenosis in the rat [2]; [8]): 0.176 ± 0.008 mm^2
effect on formation of the neointima (in words) (restenosis in the rat [2]): stimulates the formation of the neointima by almost two fold

CCc1nc2c(C)cc(C)nc2n1Cc1ccc(-c2ccccc2-c2nnn[nH]2)cc1 [Compound I, 5,7-dimethyl-2-ethyl-3-[(2'-(1H-tetrazol-5-yl)[1,1']-biphenyl-4-yl]-methyl]-3H-imidazo[4,5-b]pyridine]
I/M (restenosis in the rat [3]; [9]): 1.01 ± 0.07
Media Area (restenosis in the rat [3]; [9]): 0.124 ± 0.006 mm^2
Intima Area (restenosis in the rat [3]; [9]): 0.125 ± 0.010 mm^2
I/M (restenosis in the rat [3]; [10]): 1.19 ± 0.04
Media Area (restenosis in the rat [3]; [10]): 0.125 ± 0.006 mm^2
Intima Area (restenosis in the rat [3]; [10]): 0.149 ± 0.009 mm^2
reduction in the neointimal area (in words) (restenosis in the rat [3]; pretreatment for 2 days or co-administration of heparin): reduction in the neointimal area when compared with no pretreatment
effect on formation of the neointima (in words) (restenosis in the rat [2]): inhibits this stimulation
Intimal Area + sem [1]: 0.121 ± 0.012 mm^2
% Inhibition (intimal area) [1]: 41%
inhibition of restenosis / neointima (in words) [1]: independently inhibit neointima in this model
inhibition of neointimal formation (in words) (restenosis in the rat [4]): may independently inhibit growth of the neointimal formation
Intimal Area (restenosis in the rat [4]): 0.121 ± 0.012 mm^2
% Inhibition (intimal area) (restenosis in the rat [4]): 41%
I/M (restenosis in the rat [5]; 0.1 mg/kg/day i.v.): 1.64 ± 0.09
Intima Area (restenosis in the rat [5]; 0.1 mg/kg/day i.v.): 0.212 ± 0.013 mm^2
Media Area (restenosis in the rat [5]; 0.1 mg/kg/day i.v.): 0.129 ± 0.003 mm^2
I/M (restenosis in the rat [5]; 0.3 mg/kg/day i.v.): 1.47 ± 0.19
Intima Area (restenosis in the rat [5]; 0.3 mg/kg/day i.v.): 0.148 ± 0.014 mm^2
Media Area (restenosis in the rat [5]; 0.3 mg/kg/day i.v.): 0.103 ± 0.009 mm^2
I/M (restenosis in the rat [5]; 1.0 mg/kg/day i.v.): 1.24 ± 0.04
Intima Area (restenosis in the rat [5]; 1.0 mg/kg/day i.v.): 0.149 ± 0.009 mm^2

CCc1nc2ccc(N(Cc3ccccc3)C(=O)c3cccs3)cc2c(=O)n1Cc1ccc(-c2ccccc2-c2nn[nH]n2)cc1 [Compound II]
Intimal Area + sem [1]: 0.097 ± 0.027 mm^2
% Inhibition (intimal area) [1]: 53%
inhibition of restenosis / neointima (in words) [1]: inhibit restenosis in this model; also recorded: independently inhibit neointima in this model
Intimal Area [6]: 0.097 ± 0.027 mm^2
% Inhibition of restenosis (intimal area) [6]: 53%
effect upon neointimal formation (in words) ([6]; rat carotid model, administration alone): significant effect upon neointimal formation
inhibition of neointimal formation (in words) (restenosis in the rat [4]): may independently inhibit growth of the neointimal formation
Intimal Area (restenosis in the rat [4]): 0.097 ± 0.027 mm^2
% Inhibition (intimal area) (restenosis in the rat [4]): 53%
inhibition of neointimal formation (in words) (restenosis in the rat [5]; 0.1-1.0 mg/kg/day i.v.): inhibits neointimal formation in a dose dependent manner

heparin
I/M (restenosis in the rat [3]; Hep 2d alone): 1.14 ± 0.13
Media Area (restenosis in the rat [3]; Hep 2d alone): 0.130 ± 0.008 mm^2
Intima Area (restenosis in the rat [3]; Hep 2d alone): 0.144 ± 0.012 mm^2
I/M (restenosis in the rat [3]; [11]): 1.17 ± 0.10
Media Area (restenosis in the rat [3]; [11]): 0.136 ± 0.010 mm^2
Intima Area (restenosis in the rat [3]; [11]): 0.158 ± 0.016 mm^2
Intimal Area [6]: 0.158 ± 0.016 mm^2
% Inhibition of restenosis (intimal area) [6]: 23%
I/M (restenosis in the rat [7]; 2 days): 1.14 ± 0.13
Intima Area (restenosis in the rat [7]; 2 days): 0.144 ± 0.012 mm^2
Media Area (restenosis in the rat [7]; 2 days): 0.130 ± 0.008 mm^2
I/M (restenosis in the rat [7]; 4 days): 1.17 ± 0.10
Intima Area (restenosis in the rat [7]; 4 days): 0.158 ± 0.016 mm^2
Media Area (restenosis in the rat [7]; 4 days): 0.136 ± 0.010 mm^2
I/M (restenosis in the rat [7]; 14 days): 0.77 ± 0.05
Intima Area (restenosis in the rat [7]; 14 days): 0.098 ± 0.008 mm^2
Media Area (restenosis in the rat [7]; 14 days): 0.128 ± 0.004 mm^2
effect on formation of neointima (in words) (restenosis in the rat [7]; heparin alone, 2, 4 or 14 days): decreases the formation of neointima; also recorded: greatest degree of inhibition was observed when heparin was given for 14 days

Source: patent US5409926A, “AT-2 antagonist inhibition of vascular restenosis” (Merck & Co., Inc., priority 1993, dated 1995)
